Experimental data taken from US20230094568A1, “METHOD FOR SUPPRESSING DIFFERENTIATION OF PLURIPOTENT STEM CELLS” (KANEKA CORPORATION, priority 2020, published 2023).

System: Human iPS cell WTC-11 strain
Test: Quantitative real-time PCR of marker genes after suspension culture (Example 2)
Assay type: cell-based
Details: WTC-11, day 10 of suspension culture, inhibitor(s) in medium
Method: After the EDTA solution was sucked up, StemFit® AK02N medium was added to the dish, cells were detached with a cell scraper, and then dispersed into single cells by pipetting. […] Into a 6-well plate for suspension culture (Sumitomo Bakelite Co., Ltd.), 4 mL of the cell suspension was seeded per well. On a rotary shaker (Optima Co., Ltd.), the plate into which the cells had been seeded was rotated along a circle having a rotation width (diameter) of 25 mm in the horizontal plane at a speed of 90 rpm, and suspension culture was performed under an environment at 37° C. and 5% CO2. Subculture was performed on day 5 of culture as the day on which the cells were seeded was defined as day 0 of culture, and suspension culture was performed until day 10 of culture. Medium exchange was performed on day 2, 4, 7, and 9 of culture. […] On day 5 of culture, a cell aggregate and culture supernatant were collected from each well into a centrifuge tube, left to stand for about 5 minutes to precipitate the cell aggregate, and the culture supernatant was removed. […]
Quantitative real-time PCR analysis was performed with a procedure shown in the following. […] Quantitative real-time PCR analysis was carried out by using a TaqMan® QuantStudio3 real-time PCR system (Thermo Fisher Scientific).

With `O=C(Nc1cccc2cccnc12)c1ccc(N2C(=O)[C@@H]3[C@H](C2=O)[C@@H]2C=C[C@H]3C2)cc1` [Comparative Example 2, 4-(1,3,3a,4,7,7a-hexahydro-1,3-dioxo-4,7-methano-2H-isoindol-2-yl)-N-8-quinolinyl-benzamide] the “ACTB-normalized relative gene expression level (2^−ΔCt) OCT4” value was 2.05.
In the case of `COc1ccc2c(c1)c(C1=C(c3c[nH]c4ccccc34)C(=O)NC1=O)cn2CCCN(C)C` [Comparative Example 3, 3-[1-[3-(dimethylamino)propyl]-5-methoxy-1H-indol-3-yl]-4-(1H-indol-3-yl)-1H-pyrrole-2,5-dione], the “ACTB-normalized relative gene expression level (2^−ΔCt) OCT4” value was 3.30 × 10^−3.
